Biological target: hENPP2 (Homo sapiens, UniProt Q13822)
Experiment: Human ENPP2 (hENPP2) biochemical assay using LPC as substrate
Conditions: 150 µM LPC (palmitoyl 16:0), 37°C for 30 min
How it was run: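 IC50 came from compound series (top 50 µM, 1/3 steps) incubated 30 min at 37°C with 1 or 3 µg/mL final enzyme and palmitoyl LPC added at 150 µM, pH 8.5 Tris buffer with Ca2+. Choline output measured as quinoneimine dye at 555 nm via coupled oxidase/HRP/TOOS detection.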

Compound	IC50
Cc1cc(C)cc(Nc2ncc3c(n2)CCN(C2CCN(C(=O)C4CCN(c5cc6nn[nH]c6cc5C)CC4)CC2)C3)c1 [compound 199, [4-[2-(3,5-dimethylanilino)-7,8-dihydro-5H-pyrido[4,3-d]pyrimidin-6-yl]-1-piperidyl]-[1-(6-methyl-1H-benzotriazol-5-yl)-4-piperidyl]methanone]	> 1000 nM
COc1cc(Nc2ncc3c(n2)CN([C@@H]2CCN(C(=O)c4ccnc(NS(C)(=O)=O)c4)[C@H](C)C2)C3)cc(OC)c1 [compound 200, N-[4-[(2R,4R)-4-[2-(3,5-dimethoxyanilino)-5,7-dihydropyrrolo[3,4-d]pyrimidin-6-yl]-2-methyl-piperidine-1-carbonyl]-2-pyridyl]methanesulfonamide]	0.01 to 100 nM
CS(=O)(=O)Nc1cc(C(=O)N2CCC(N3Cc4cnc(Nc5ccc(C(F)(F)F)cc5)nc4C3)CC2)ccn1 [compound 201, N-[4-[4-[2-[4-(trifluoromethyl)anilino]-5,7-dihydropyrrolo[3,4-d]pyrimidin-6-yl]piperidine-1-carbonyl]-2-pyridyl]methanesulfonamide]	0.01 to 100 nM
Cc1cc(C)cc(Nc2ncc3c(n2)CN(C2CCN(C(=O)c4ccnc(NS(C)(=O)=O)c4)CC2)C3)c1 [compound 202, N-[4-[4-[2-(3,5-dimethylanilino)-5,7-dihydropyrrolo[3,4-d]pyrimidin-6-yl]piperidine-1-carbonyl]-2-pyridyl]methanesulfonamide]	0.01 to 100 nM
Cc1cccc(Nc2ncc3c(n2)CN([C@@H]2CCN(C(=O)c4ccnc(NS(C)(=O)=O)c4)[C@H](C)C2)C3)c1 [compound 203, N-[4-[(2R,4R)-2-methyl-4-[2-(3-methylanilino)-5,7-dihydropyrrolo[3,4-d]pyrimidin-6-yl]piperidine-1-carbonyl]-2-pyridyl]methanesulfonamide]	0.01 to 100 nM
COc1cc(F)cc(Nc2ncc3c(n2)CN([C@@H]2CCN(C(=O)c4ccnc(NS(C)(=O)=O)c4)[C@H](C)C2)C3)c1 [compound 204, N-[4-[(2R,4R)-4-[2-(3-fluoro-5-methoxy-anilino)-5,7-dihydropyrrolo[3,4-d]pyrimidin-6-yl] -2-methyl-piperidine-1-carbonyl]-2-pyridyl]methanesulfonamide]	100 to 500 nM
C[C@@H]1C[C@H](N2Cc3cnc(Nc4ccc(OC(F)(F)F)cc4)nc3C2)CCN1C(=O)c1ccnc(NS(C)(=O)=O)c1 [compound 205, N-[4-[(2R,4R)-2-methyl-4-[2-[4-(trifluoromethoxy)anilino]-5,7-dihydropyrrolo[3,4-d]pyrimidin-6-yl]piperidine-1-carbonyl]-2-pyridyl]methanesulfonamide]	0.01 to 100 nM
Cc1cc(C)cc(Nc2ncc3c(n2)CN([C@@H]2CCN(C(=O)c4cccc(NS(C)(=O)=O)c4)[C@H](C)C2)C3)c1 [compound 206, N-[3-[(2R,4R)-4-[2-(3,5-dimethylanilino)-5,7-dihydropyrrolo[3,4-d]pyrimidin-6-yl]-2-methyl-piperidine-1-carbonyl]phenyl]methanesulfonamide]	> 1000 nM
Cc1cc(Nc2ncc3c(n2)CN([C@@H]2CCN(C(=O)c4ccnc(NS(C)(=O)=O)c4)[C@H](C)C2)C3)ccc1F [compound 207, N-[4-[(2R,4R)-4-[2-(4-fluoro-3-methyl-anilino)-5,7-dihydropyrrolo[3,4-d]pyrimidin-6-yl]-2-methyl-piperidine-1-carbonyl]-2-pyridyl]methanesulfonamide]	0.01 to 100 nM
Cc1cc(C)cc(Nc2ncc3c(n2)CN([C@@H]2CCN(C(=O)c4cc(NS(C)(=O)=O)ncc4F)[C@H](C)C2)C3)c1 [compound 208, N-[4-[(2R,4R)-4-[2-(3,5-dimethylanilino)-5,7-dihydropyrrolo[3,4-d]pyrimidin-6-yl]-2-methyl-piperidine-1-carbonyl]-5-fluoro-2-pyridyl]methanesulfonamide]	0.01 to 100 nM
CC(=O)Nc1cc(C(=O)N2CC[C@@H](N3Cc4cnc(Nc5cc(C)cc(C)c5)nc4C3)C[C@H]2C)ccn1 [compound 209, N-[4-[(2R,4R)-4-[2-(3,5-dimethylanilino)-5,7-dihydropyrrolo[3,4-d]pyrimidin-6-yl]-2-methyl-piperidine-1-carbonyl]-2-pyridyl]acetamide]	500 to 1000 nM
Cc1cc(C)cc(Nc2ncc3c(n2)CN([C@@H]2CCN(C(=O)c4cc(NS(C)(=O)=O)ncc4C)[C@H](C)C2)C3)c1 [compound 218, N-[4-[(2R,4R)-4-[2-(3,5-dimethylanilino)-5,7-dihydropyrrolo[3,4-d]pyrimidin-6-yl]-2-methyl-piperidine-1-carbonyl]-5-methyl-2-pyridyl]methanesulfonamide]	0.01 to 100 nM

The remaining lines, values ahead:

IC50	Compound
0.01 to 100 nM	CCS(=O)(=O)Nc1cc(C(=O)N2CC[C@@H](N3Cc4cnc(Nc5cc(C)cc(C)c5)nc4C3)C[C@H]2C)ccn1 [compound 210, N-[4-[(2R,4R)-4-[2-(3,5-dimethylanilino)-5,7-dihydropyrrolo[3,4-d]pyrimidin-6-yl]-2-methyl-piperidine-1-carbonyl]-2-pyridyl]ethanesulfonamide]
> 1000 nM	Cc1cc(C)cc(Nc2ncc3c(n2)CN([C@@H]2CCN(C(=O)c4cncc(NS(C)(=O)=O)c4)[C@H](C)C2)C3)c1 [compound 211, N-[5-[(2R,4R)-4-[2-(3,5-dimethylanilino)-5,7-dihydropyrrolo[3,4-d]pyrimidin-6-yl]-2-methyl-piperidine-1-carbonyl]-3-pyridyl]methanesulfonamide]
100 to 500 nM	Cc1cc(C)cc(Nc2ncc3c(n2)CN([C@@H]2CCN(C(=O)c4ccnc(NS(=O)(=O)C(F)(F)F)c4)[C@H](C)C2)C3)c1 [compound 212, N-[4-[(2R,4R)-4-[2-(3,5-dimethylanilino)-5,7-dihydropyrrolo[3,4-d]pyrimidin-6-yl]-2-methyl-piperidine-1-carbonyl]-2-pyridyl]-1,1,1-trifluoro-methanesulfonamide]
0.01 to 100 nM	C[C@@H]1C[C@H](N2Cc3cnc(Nc4cc(F)cc(Cl)c4)nc3C2)CCN1C(=O)c1ccnc(NS(C)(=O)=O)c1 [compound 213, N-[4-[(2R,4R)-4-[2-(3-chloro-5-fluoro-anilino)-5,7-dihydropyrrolo[3,4-d]pyrimidin-6-yl]-2-methyl-piperidine-1-carbonyl]-2-pyridyl]methanesulfonamide]
100 to 500 nM	C[C@@H]1C[C@@H](N2Cc3cnc(Nc4cc(F)cc(Cl)c4)nc3C2)CCN1C(=O)c1ccnc(NS(C)(=O)=O)c1 [compound 214, N-[4-[(2R,4S)-4-[2-(3-chloro-5-fluoro-anilino)-5,7-dihydropyrrolo[3,4-d]pyrimidin-6-yl]-2-methyl-piperidine-1-carbonyl]-2-pyridyl]methanesulfonamide]
0.01 to 100 nM	Cc1cc(Nc2ncc3c(n2)CN([C@@H]2CCN(C(=O)c4ccnc(NS(C)(=O)=O)c4)[C@H](C)C2)C3)ccc1C(F)(F)F [compound 215, N-[4-[(2R,4R)-2-methyl-4-[2-[3-methyl-4-(trifluoromethyl)anilino]-5,7-dihydropyrrolo[3,4-d]pyrimidin-6-yl]piperidine-1-carbonyl]-2-pyridyl]methanesulfonamide]
0.01 to 100 nM	Cc1cc(Nc2ncc3c(n2)CN([C@H]2CCN(C(=O)c4ccnc(NS(C)(=O)=O)c4)[C@H](C)C2)C3)ccc1C(F)(F)F [compound 216, N-[4-[(2R,4S)-2-methyl-4-[2-[3-methyl-4-(trifluoromethyl)anilino]-5,7-dihydropyrrolo[3,4-d]pyrimidin-6-yl]piperidine-1-carbonyl]-2-pyridyl]methanesulfonamide]
0.01 to 100 nM	COc1cc(Nc2ncc3c(n2)CN([C@@H]2CCN(C(=O)c4ccnc(NS(C)(=O)=O)c4)[C@H](C)C2)C3)ccc1Cl [compound 217, N-[4-[(2R,4R)-4-[2-(4-chloro-3-methoxy-anilino)-5,7-dihydropyrrolo[3,4-d]pyrimidin-6-yl]-2-methyl-piperidine-1-carbonyl]-2-pyridyl]methanesulfonamide]
100 to 500 nM	C[C@@H]1C[C@@H](N2Cc3cnc(Nc4cccc(OC5CC5)c4)nc3C2)CCN1C(=O)c1ccnc(NS(C)(=O)=O)c1 [compound 219, N-[4-[(2R,4S)-4-[2-[3-(cyclopropoxy)anilino]-5,7-dihydropyrrolo[3,4-d]pyrimidin-6-yl]-2-methyl-piperidine-1-carbonyl]-2-pyridyl]methanesulfonamide]

Source: EP3782997A1, “FUSED PYRIMIDINE COMPOUNDS AND PHARMACEUTICAL COMPOSITIONS THEREOF FOR THE TREATMENT OF FIBROTIC DISEASES” (Galapagos N.V., priority 2019, dated 2021)
